Values after ≈ are worked out from the molar mass of the structure shown. Records with an inconclusive call do not appear. Active and inactive are the calls of the source. No rule for the calls is given here.

The test system of this assay is Zebrafish larvae lipid metabolism, fluorescent lipid gallbladder/intestine. As to the kind of experiment: larval zebrafish lipid processing modulation – whole organism, confirmation, fluorescent lipid, gallbladder/intestine, dose response (AID 691).
As to `CNc1ccccc1-c1nc2ccccc2n(C)c1=O`, the MIC (commonly the least concentration at which growth counts as inhibited) was 15.6 µM (≈ 4.15 µg/mL). Take `CC(=O)Nc1nnc(S(N)(=O)=O)s1`: the MIC was > 100 µM (inactive). The same measure for `CCCC1CC(=O)OC1(C)C(=O)CSc1n[nH]c(-c2ccccc2)n1` (stereo not given): > 100 µM (inactive); for `N#CCSc1nc2c(c(=O)n1Cc1ccco1)C1(CCCC1)Cc1ccccc1-2`: 25 µM (≈ 10.1 µg/mL). Next, `CC1Oc2ccccc2N(CC(=O)NCc2cccs2)C1=O` (stereo not given): > 100 µM (inactive); `COC(=O)c1sccc1NC(=O)c1ccco1`: > 100 µM (inactive); `c1ccc(CN2CCN(c3ncnc4c3[nH]c3ccccc34)CC2)cc1`: 31.3 µM (≈ 10.7 µg/mL). Next, `CC1(C)Cc2c(C#N)c(NCc3ccco3)nc(-c3ccco3)c2CO1`: > 100 µM (inactive); `CC(C)N=c1cc2n(-c3ccc(Cl)cc3)c3ccccc3nc-2cc1Nc1ccc(Cl)cc1`: 6.25 µM (≈ 2.96 µg/mL); `Cc1cccc2c1NC(C)CC2C` (stereo not given): > 100 µM (inactive).

For the compound `N#Cc1ccc(CSc2nnc(-c3ccccn3)n2-c2ccccc2)cc1`, the MIC is > 100 µM (inactive). As for `N#Cc1c(NCCN)nc(NCc2ccccc2)c2c1CCN(Cc1ccccc1)C2`, the MIC was > 100 µM (inactive). Next, `CNc1oc(-c2ccccc2Cl)nc1C#N`: > 100 µM (inactive); `Cc1nnc(NC(=O)C2CCCO2)s1` (stereo not given): > 100 µM (inactive).

As for `COc1ccc(C2CC(C(F)(F)F)n3ncc(C(=O)Nc4cccc(O)c4)c3N2)cc1OC` (stereo not given), the MIC is > 100 µM (inactive).

Consider `CCN1CC2=C(OC(N)=C(C#N)C2c2ccccc2)/C(=C\c2ccccc2)C1` (stereo not given), for which the MIC was > 100 µM (inactive). As to `COC(=O)C1=C(N)Oc2cc(C)oc(=O)c2C1c1ccncc1` (stereo not given), the MIC is > 100 µM (inactive). The same measure for `CCOC(=O)CSc1nnc2n(Cc3ccccc3)c(=O)c3c4c(sc3n12)CCC4`: > 100 µM (inactive). With `CCOC(=O)CCc1c(C)c(C#N)c2[nH]c3ccccc3n2c1=O`, the MIC is > 100 µM (inactive).

With `COc1ccc(OC)c(Nc2nc(-c3cccs3)cs2)c1`, the minimum inhibitory concentration (MIC) is 56.2 µM (≈ 17.9 µg/mL). Next, `c1coc(-c2nnc3sc(-c4cccs4)nn23)c1`: 9.37 µM (≈ 2.57 µg/mL); `COc1cccc(-c2nnc3sc(-c4ccco4)nn23)c1`: > 100 µM (inactive).

On to `Cc1ccc2[nH]c3c(c2c1)CN(C(=O)CN1CCCc2ccccc21)CC3`, for which the MIC was > 100 µM (inactive). `COC(=O)c1cc(Br)c(=O)n(CCc2ccc(F)cc2)c1`: the MIC is > 100 µM (inactive).

As to `CCOC(=O)C1CCCN(c2nc3ccccc3nc2C(C#N)C(=O)OCCOC)C1` (stereo not given), the MIC is > 100 µM (inactive).

For the compound `C=CCn1c(N)c(C(=O)Nc2ccccc2)c2nc3ccccc3nc21`, the MIC is > 100 µM (inactive).

Take `COC(=O)c1ccc(Cn2nnc3c(sc4nc(N5CCOCC5)c5c(c43)CCCC5)c2=O)o1`: the MIC is > 100 µM (inactive). Next, `c1ccc(-c2nnc3sc(Cc4cccs4)nn23)cc1`: 18.8 µM (≈ 5.59 µg/mL).

Turning to `CCN(CC)C(=O)c1sc2nc(-c3cccs3)cc(-c3cccs3)c2c1N`, the MIC is 12.5 µM (≈ 5.17 µg/mL). Next, `CC1(c2cnc(Nc3ccccc3)s2)CCC(=O)O1` (stereo not given): > 100 µM (inactive); `Cc1ccc(CNC(=O)c2cc3c(=O)n4ccccc4nc3n(Cc3ccco3)c2=N)cc1`: 62.5 µM (≈ 27.5 µg/mL); `OCCN1CCN(CCCN2c3ccccc3Sc3ccc(C(F)(F)F)cc32)CC1`: > 100 µM (inactive).

Regarding `Cc1ccc2nc(C3CCN(CC(=O)N4CCCCCC4)CC3)[nH]c2c1`, the MIC is > 100 µM (inactive). The same measure for `CCN(CC)c1ccc(C2Nc3cccc4cccc(c34)N2)c(O)c1`: > 100 µM (inactive); for `CCCCOc1ccccc1C(=O)NCCCC(=O)O`: > 100 µM (inactive). Regarding `Cc1c(N=Cc2c(O)n(CCc3ccc(F)cc3)c(=O)[nH]c2=O)c(=O)n(-c2ccccc2)n1C`, the MIC is > 100 µM (inactive).

Consider `CCOC(=O)CSc1nc(N)c(C(=O)Nc2ccc(N(C)C)cc2)s1`, for which the MIC was 25 µM (≈ 9.51 µg/mL).

As for `CCNC(=O)c1cc2c(=O)n3cccc(C)c3nc2n(CCc2ccccc2)c1=N`, the MIC is > 100 µM (inactive). The same measure for `COCCCN1C(=O)C(O)=C(C(C)=O)C1c1ccccn1` (stereo not given): > 100 µM (inactive). On to `COc1ccc2c(c1)c(C(=O)CN1CCOCC1)c(C)n2C`, for which the MIC is > 100 µM (inactive). With `COc1ccccc1-c1nnc2sc(C3CCCCC3)nn12`, the MIC is > 100 µM (inactive). On to `CN(C)[C@@H]1C(=O)C(C(N)=O)=C(O)[C@@]2(O)C(=O)C3=C(O)c4c(O)ccc(Cl)c4[C@@H](O)[C@H]3C[C@@H]12`, for which the MIC was > 100 µM (inactive). Next, `CS(=O)(=O)Nc1ccc([N+](=O)[O-])cc1Oc1ccccc1`: > 100 µM (inactive). For the compound `Cc1c(N=Cc2c(O)n(C3CCCCC3)c(=O)[nH]c2=O)c(=O)n(-c2ccccc2)n1C`, the MIC is > 100 µM (inactive). The same measure for `Cn1c(C(=O)OC(C(=O)NC2CCCC2)c2cccnc2)cc2sccc21` (stereo not given): > 100 µM (inactive); for `Cc1csc(NC(=O)Nc2cccc(Cl)c2)n1`: > 100 µM (inactive). The same measure for `COc1ccc(C)cc1-n1nnnc1SC/C(O)=C(\C#N)c1nc2ccccc2[nH]1`: > 100 µM (inactive).

Regarding `O=C1c2ccccc2-c2onc3ccc(NCc4ccco4)c1c23`, the minimum inhibitory concentration (MIC) was 3.91 µM (≈ 1.24 µg/mL). The same measure for `N#CC1=C(SCC(=O)c2ccc(Cl)cc2)NC2=C(C(=O)CCC2)C1c1ccco1` (stereo not given): > 100 µM (inactive); for `Clc1ccc(OCc2nnc(SCCN3CCCCC3)n2Cc2ccco2)cc1`: 75 µM (≈ 32.5 µg/mL).

(Values after PubChem BioAssay AID691 (PCMD, 2007).)
